Laboratory results taken from publication PMC6736837, “^18F-labelled triazolyl-linked argininamides targeting the neuropeptide Y Y1R for PET imaging of mammary carcinoma” (Scientific Reports, 2019).
Entries after “also recorded” stand apart in the source; their conditions may differ.

Tests used:
Y1R = target: Y1R; design: method as in PMID 28337321; details: displacement of [^3H]UR-MK114, SK-N-MC neuroblastoma cells; cited from earlier work
hY5R = target: T1, hY5R (Homo sapiens, UniProt Q15761); details: read-out: Kd of the radioligand (Y5R); cited from earlier work
T1 construct: expressed in transfected cells; host or cells: HEC-1b cells (HEC-1b hY5R)
T1 sequence (Q15761 1-445): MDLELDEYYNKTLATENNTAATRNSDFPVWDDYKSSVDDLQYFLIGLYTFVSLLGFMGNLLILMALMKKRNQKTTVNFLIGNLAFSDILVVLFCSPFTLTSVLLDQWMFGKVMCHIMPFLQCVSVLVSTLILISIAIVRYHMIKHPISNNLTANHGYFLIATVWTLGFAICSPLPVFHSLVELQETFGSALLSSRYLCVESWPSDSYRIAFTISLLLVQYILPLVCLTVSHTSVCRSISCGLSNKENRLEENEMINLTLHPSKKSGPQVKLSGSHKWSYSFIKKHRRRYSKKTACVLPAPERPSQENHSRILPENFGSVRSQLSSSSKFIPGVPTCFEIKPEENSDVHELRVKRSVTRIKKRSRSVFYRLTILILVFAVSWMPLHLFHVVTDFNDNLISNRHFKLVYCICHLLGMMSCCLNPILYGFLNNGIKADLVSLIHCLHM

[1] = Biodistribution in healthy mice; type: in vivo, mouse; details: at 30 and 90 min p.i.
Protocol: Biodistribution studies were conducted using female NMRI outbred mice (HsdWin:NMRI) purchased from Envigo (Horst, The Netherlands). Mice were kept in groups of four to five animals in individually ventilated cages in a twelve hours dark/light cycle with unlimited access to water and standard chow. At the age of eight to nine weeks six animals per radiotracer were injected with 2–4 MBq of the respective radiotracer under isoflurane anesthesia. Mice were sacrificed by cervical dislocation 30 or 90 min p.i. of the radiotracer. Blood as well as the organs/tissues lung, liver, kidneys, heart, spleen, brain, muscle, intestines, gall bladder and bones were harvested and analysed in the γ-counter. Samples were weighed and radioactivity in different tissues was calculated as percentage of the total injected dose per gram tissue (%ID/g).

MCF-7-Y1 tumours = experiment: Small animal PET in MCF-7-Y1 xenografted nude mice; type: in vivo, mouse; details: 45–60 min p.i., blocking by co-injection of BIBP3226 1 mg/kg
Protocol: For the NPY Y1R xenograft model, female NMRI nude mice (HsdCpb:NMRI-Foxn1^nu) were purchased from Envigo (Horst, The Netherlands) at the age of three weeks. Mice were kept in groups of four to five animals in individually ventilated cages in a twelve hours dark/light cycle with unlimited access to water and standard chow. At the age of nine to ten weeks one 17β-estradiol pellet per animal (0.72 mg per pellet, 3 mm diameter) with a 60-day release time (Innovative Research of America, Sarasota, FL, USA) was subcutaneously implanted on the back under isoflurane anesthesia. After three days, approximately 10^6 MCF-7-Y1 tumour cells (in 50 µL PBS) were mixed with Matrigel (50 µL, BD Biosciences, Heidelberg) and then injected subcutaneously at the back. Tumour diameters and weight of the animals were recorded five times a week. Imaging studies were performed four weeks after inoculation of the cells.
Small animal PET scans were performed on an Inveon™ microPET scanner (Siemens Healthcare, Erlangen) under isoflurane anesthesia (3%). Tumour bearing mice (26–35 g, n = 2–3 for each radioligand) were intravenously injected into the tail vein with the respective radiotracer (1.5–4.2 MBq in about 100 µL of saline) under isoflurane anesthesia (3–4%). Static images were acquired for 15 min starting 45 min p.i. of the radiotracer. For displacement studies, the same mice were co-injected with the radiotracer ([^18F]12 and [^18F]13 only) and BIBP3226 (1 mg/kg). Images were corrected for decay and attenuation and MAP (iterative maximum a posteriori) images were reconstructed using the built-in software of the PET scanner. Evaluation of the MAP images was conducted using the software PMOD (version 3.6, PMOD Technologies LLC, Zürich). Regions of interests (ROIs) were drawn and radioactivity concentration within these regions was obtained from the mean values and calculated as percentage of the total injected dose per gram tissue (% ID/g).

MCF-7-Y1 tumour slices = experiment: In-vitro autoradiography on MCF-7-Y1 tumour xenograft slices; type: binding, human; details: blocking with 1 µM and 10 µM BIBP3226
Protocol: MCF-7-Y1 tumour bearing mice were sacrificed by cervical dislocation under deep isoflurane anesthesia and tumours were excised and subsequently frozen in a hexane/dry ice bath (−70 °C). MCF-7-Y1 tumour slices (14 µm) were prepared on a cryostat microtome HM 500 O (Microm, Walldorf) and thaw-mounted on Histobond® adhesive glass slides (Marienfeld, Lauda-Königshofen).
For autoradiography studies slides were thawed and pre-incubated for 15 min in incubation buffer (50 mM TRIS HCl, pH 7.4, containing 120 mM NaCl, 5 mM MgCl2,) at room temperature. Thereafter, 800 µL of incubation buffer, containing 0.1 MBq of the respective radiotracer were pipetted on the slide and incubated at room temperature for 60 min. For displacement studies BIBP3226 (1 µM or 10 µM) was added to the incubation buffer before pipetting on the slides. Afterwards slides were washed by placing in ice cold incubation buffer (3 × 2 min) followed by short dipping in ice cold distilled water. Slides were carefully dried in a stream of warm air and finally placed on an autoradiography film (Fuji Imaging Plate BAS-IP SR 2025 E, Fujifilm, Düsseldorf) overnight prior to readout (25 µm resolution) on the autoradiograph (HD-CR-35 Bio, Raytest, Straubenhardt) and analysis with the software AIDA (Raytest). Additional sections were stained with hematoxylin and eosin (H&E) for comparison with the autoradiography images.

[2] = Radioactive metabolites of Y1R radioligands in mouse blood; type: in vivo
Protocol: Nude mice were anesthetised with isoflurane and injected with the respective radiotracer (3–25 MBq) into the tail vein. After 5 min, animals were sacrificed by cervical dislocation and approx. 100 µL blood were collected from the abdomen and transferred into Li-heparinised Microvettes® (100 LH, Sarstedt). The same volume of aqueous urea (0.8 g/mL) was added and the Microvette® was centrifuged (2000 × g, 5 min). The supernatant was transferred to a 1.5 mL reaction vial, mixed with the same volume of 10% aqueous TFA and centrifuged (20000 × g, 5 min). This step was repeated once. A sample of the resulting supernatant (100 µL) was analysed by radio-HPLC using two methods (Chromolith RP-18e, 100 × 4.6 mm, 4 mL/min, 0–1 min 25% CH3CN (0.1%TFA) in water (0.1%TFA), 1–6 min 25–60%, 6–7 min 60–100%, 7–8 min 100%; Kromasil 100 C8 5 µm, 250 × 4.6 mm, 1.5 mL/min, 1–25 min 20–53.3% CH3CN (0.1% TFA) in water (0.1% TFA), 25–27 min 53.3–80%, 27–28 min 80–100%, 28–32 min 100%).

[3] = Radiotracer stability in human serum by radio-HPLC; type: in vitro ADME; details: 37 °C
Protocol: The stability of ^18F-labelled compounds was determined in human serum. An aliquot of the radiotracer (5–10 MBq) was added to 200 µL human serum and incubated at 37 °C. Aliquots of 15 µL were taken after 5, 10, 15, 30, 45, 60, 120 and 180 min and quenched in 100 µL of 10% aqueous TFA. The samples were centrifuged (20000 × g, 2 min), and the supernatants were analysed by radio-HPLC (Chromolith RP-18e, 100 × 4.6 mm, 4 mL/min, 0–1 min 25% CH3CN (0.1% TFA) in water (0.1% TFA), 1–6 min 25–60%, 6–7 min 60–100%, 7–8 min 100%).

[4] = Octanol-water distribution coefficient logD7.4, shake flask method; type: physicochemical; details: 1-octanol/PBS, pH 7.4, PBS/1-octanol, read-out: logD7.4 experimental
Protocol: The lipophilicity of the radioligands was determined by the distribution coefficient logD7.4. The respective radioligand (10 µL, about 25 kBq) was added to a mixture of PBS (500 µL) and 1-octanol (500 µL) and the emulsion was vortexed for 1 min. After centrifugation 3 × 100 µL were taken of each layer and analysed by a γ-counter. The partition coefficient was calculated as logD7.4=log(cpmoctanol/cpmPBS) . Data were expressed as mean values ± SD from three experiments.

[5] = Binding to human plasma proteins by gel filtration; type: in vitro ADME; details: 37 °C, read-out: Free fraction in plasma
Protocol: The binding of ^18F-labelled compounds to plasma proteins was determined using gel filtration columns(illustra™ MicroSpin™ G-50 Columns, GE Healthcare Life Sciences, Freiburg). An aliquot of the radiotracer (approx. 100 kBq) was added to 200 µL of saline, and 100 µL of human plasma, respectively. Both samples were incubated at 37 °C for 10 min. MicroSpin™ columns were prepared according to the user instruction. Then 25 µL of the incubated radiotracer were given onto the columns and the devices were centrifuged (2000 × g, 2 min). Eluate and solid phase were analysed in the γ-counter (Wallac Wizard). The percentage of unbound radioligand was calculated as %free=cpmsolidphase/cpmsolidphase+cpmeluate . The sample in saline was used as control.

For NC(N)=NCCC[C@@H](NC(=O)C(c1ccccc1)c1ccccc1)C(=O)NCc1ccc(O)cc1 [BIBP3226], which Ki (Y1R) is on record?
The Ki was 1.3 nM.

For “[^3H]propionyl-pNPY: tritiated radioligand used for competition binding at hY2R and hY5R”, which Kd (hY5R) is on record?
Its Kd is 4.8 nM.

Which kidney uptake [1] does the source give for N/C(=N/C(=O)NCc1cn(CCOCC[18F])nn1)NCCC[C@@H](NC(=O)C(c1ccccc1)c1ccccc1)C(=O)NCc1ccc(O)cc1 [[^18F]12, (2R)‐5‐{[(1Z)‐Amino({[({1‐[2‐(2‐[^18F]fluoroethoxy)ethyl]‐1H‐1,2,3‐triazol‐4‐yl}methyl)carbamoyl]-imino})methyl]amino}‐2‐(2,2‐diphenylacetamido)‐N‐[(4‐hydroxyphenyl)methyl]pentanamide] here?
Its kidney uptake is “about three times higher”.

And the “tumour visualisation / specific tumour accumulation in PET” value (MCF-7-Y1 tumours)?
Its value is “displaceable and thus specific Y1R-mediated tumour acculuation in vivo; also recorded: enhanced and specific tumour uptake; also recorded: highest specific binding to the Y1R-positive tumour in vivo”.

What about the “specific binding to MCF-7-Y1 tumour slices (autoradiography)” value (MCF-7-Y1 tumour slices) of the same compound?
The value was “marked specific binding; also recorded: highest specific binding to Y1R-positive cells and to tumour slices”.

And the “radiometabolites in the blood” value ([2]; mouse)?
Its value is greater than 90%.

And the “stability in the blood in vivo (in words)” value ([2]; mouse blood samples taken early after radiotracer injection)?
Its value is “underwent rapid degradation in the blood”.

And the “intact radioligand in blood samples” value ([2]; mouse, 5 min p.i.)?
The value was 10%.

What about the “Stability over 3 h in human serum” value [3] of the same compound?
The value was greater than 99%.

What about the logD [4] of the same compound?
Its logD is 1.74 ± 0.07.

And the fraction unbound at 10 min [5]?
Its fraction unbound at 10 min is 0.38.
